In patent publication US9758485B2, “Compounds for controlling arthropods” (priority 2013, dated 2017):

System: Musca domestica
Assay: Musca domestica test
Format: in vivo
Conditions: application rate 100 ppm; adult houseflies; kill after 2 days
Outline: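 Feeding exposure: adult Musca domestica, 10 per vessel, given a sponge with sugar solution and test formulation at the desired concentration; % mortality determined on day 2.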

Compound | efficacy [%]
Cc1ncc(-c2cnn(-c3c(Cl)cc(C(F)(C(F)(F)F)C(F)(F)F)cc3Cl)c2)cc1C(=O)NC1(C#N)CC1 [I-T3-92] | 100
Cc1cc(C(F)(C(F)(F)F)C(F)(F)F)cc(C)c1-n1cc(-c2cnc(C)c(C(=O)NC3CC3)c2)cn1 [I-T3-96] | 100
Cc1cc(C(F)(C(F)(F)F)C(F)(F)F)cc(C)c1-n1cc(-c2cnc(C)c(C(=O)NC3(C#N)CC3)c2)cn1 [I-T3-97] | 100
O=C(NC1CC1)c1cc(-c2cnn(-c3c(Cl)cc(C(F)(F)F)cc3Cl)c2)cnc1Cl [I-T3-98] | 90

System: Lucilia cuprina
Assay: Lucilia cuprina test
Format: in vivo
Conditions: application rate 100 ppm; L1 larvae in minced horsemeat; kill after 2 days
Outline: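 About 20 L1 larvae placed on minced horsemeat treated with compound, formulated in DMSO and diluted with water to test concentration. Kill in % scored after 2 days (100% = all larvae dead, 0% = none).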

Compound | efficacy [%]
Cc1ncc(-c2cnn(-c3c(Cl)cc(C(F)(C(F)(F)F)C(F)(F)F)cc3Cl)c2)cc1C(=O)NC1(C#N)CC1 [I-T3-92] | 100
Cc1cc(C(F)(C(F)(F)F)C(F)(F)F)cc(C)c1-n1cc(-c2cnc(C)c(C(=O)NC3CC3)c2)cn1 [I-T3-96] | 100
Cc1cc(C(F)(C(F)(F)F)C(F)(F)F)cc(C)c1-n1cc(-c2cnc(C)c(C(=O)NC3(C#N)CC3)c2)cn1 [I-T3-97] | 100
O=C(NC1CC1)c1cc(-c2cnn(-c3c(Cl)cc(C(F)(F)F)cc3Cl)c2)cnc1Cl [I-T3-98] | 100

System: Boophilus microplus Parkhurst strain, SP-resistant
Assay: Boophilus microplus - dip test
Format: in vivo
Conditions: application rate 100 ppm; dip of engorged adult female ticks; laying of fertile eggs, after 7 days
Outline: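 Adult engorged females of SP-resistant Parkhurst strain (8–10 per tube) fully immersed in compound diluted in water from a DMSO solution. Ticks then kept on filter discs in a climate-controlled room; efficacy scored from fertile egg laying at 7 days, with unclear eggs held about 42 days until hatch (100% = no fertile eggs).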

Compound | efficacy [%]
Cc1ncc(-c2cnn(-c3c(Cl)cc(C(F)(C(F)(F)F)C(F)(F)F)cc3Cl)c2)cc1C(=O)NC1(C#N)CC1 [I-T3-92] | 100
Cc1cc(C(F)(C(F)(F)F)C(F)(F)F)cc(C)c1-n1cc(-c2cnc(C)c(C(=O)NC3CC3)c2)cn1 [I-T3-96] | 100
Cc1cc(C(F)(C(F)(F)F)C(F)(F)F)cc(C)c1-n1cc(-c2cnc(C)c(C(=O)NC3(C#N)CC3)c2)cn1 [I-T3-97] | 100
O=C(NC1CC1)c1cc(-c2cnn(-c3c(Cl)cc(C(F)(F)F)cc3Cl)c2)cnc1Cl [I-T3-98] | 100

System: Ctenocephalides felis
Assay: Ctenocephalides felis - in vitro contact tests with adult cat fleas
Format: in vivo
Conditions: application rate 5 μg/cm^2 (=500 g/ha), after 48 h (dead or moribund)
Outline: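 Acetone solution coated on test-tube inner walls (900 ppm gives 5 μg/cm^2). After drying, 5-10 adult cat fleas added and kept horizontal at room temperature and ambient humidity. At 48 h fleas knocked down; motionless or uncoordinated ones counted dead/moribund, giving % efficacy.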

Compound | efficacy [%]
Cc1ncc(-c2cnn(-c3c(Cl)cc(C(F)(C(F)(F)F)C(F)(F)F)cc3Cl)c2)cc1C(=O)NC1(C#N)CC1 [I-T3-92] | 100
Cc1cc(C(F)(C(F)(F)F)C(F)(F)F)cc(C)c1-n1cc(-c2cnc(C)c(C(=O)NC3CC3)c2)cn1 [I-T3-96] | 100
Cc1cc(C(F)(C(F)(F)F)C(F)(F)F)cc(C)c1-n1cc(-c2cnc(C)c(C(=O)NC3(C#N)CC3)c2)cn1 [I-T3-97] | 100
O=C(NC1CC1)c1cc(-c2cnn(-c3c(Cl)cc(C(F)(F)F)cc3Cl)c2)cnc1Cl [I-T3-98] | 100

System: not listed separately
Assay: logP determination by HPLC on a reversed-phase column (C18), EEC Directive 79/831 Annex V.A8
Format: physicochemical
Conditions: HPLC-MS, reversed-phase column (C18)

Compound | log P
Cc1ncc(-c2cnn(-c3c(Cl)cc(C(F)(C(F)(F)F)C(F)(F)F)cc3Cl)c2)cc1C(=O)NC1(C#N)CC1 [I-T3-92] | 3.4
Cc1cc(C(F)(C(F)(F)F)C(F)(F)F)cc(C)c1-n1cc(-c2cnc(C)c(C(=O)NC3CC3)c2)cn1 [I-T3-96] | 3.3
Cc1cc(C(F)(C(F)(F)F)C(F)(F)F)cc(C)c1-n1cc(-c2cnc(C)c(C(=O)NC3(C#N)CC3)c2)cn1 [I-T3-97] | 3.4
O=C(NC1CC1)c1cc(-c2cnn(-c3c(Cl)cc(C(F)(F)F)cc3Cl)c2)cnc1Cl [I-T3-98] | 3.1

System: Rhipicephalus sanguineus
Assay: Rhipicephalus sanguineus - in vitro contact tests with adult brown dog ticks
Format: in vivo
Conditions: application rate 5 μg/cm^2, after 48 h (dead or moribund)
Outline: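 Test compound was dissolved in acetone p.a. (9 mg in 1 ml, then diluted), and 250 μl were spread evenly over the inner surface of 25 ml test tubes on an orbital shaker at 30 rpm for 2 h. Once the solvent evaporated, 5-10 adult Rhipicephalus sanguineus ticks were sealed in, kept dark at room temperature, and after 48 h placed on a 45-50° C. hotplate to score dead or moribund ticks.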

Compound | efficacy [%]
Cc1ncc(-c2cnn(-c3c(Cl)cc(C(F)(C(F)(F)F)C(F)(F)F)cc3Cl)c2)cc1C(=O)NC1(C#N)CC1 [I-T3-92] | 80
Cc1cc(C(F)(C(F)(F)F)C(F)(F)F)cc(C)c1-n1cc(-c2cnc(C)c(C(=O)NC3CC3)c2)cn1 [I-T3-96] | 100
Cc1cc(C(F)(C(F)(F)F)C(F)(F)F)cc(C)c1-n1cc(-c2cnc(C)c(C(=O)NC3(C#N)CC3)c2)cn1 [I-T3-97] | 100
O=C(NC1CC1)c1cc(-c2cnn(-c3c(Cl)cc(C(F)(F)F)cc3Cl)c2)cnc1Cl [I-T3-98] | 100

System: Boophilus microplus
Assay: Boophilus microplus - injection test
Format: in vivo
Conditions: application rate 20 μg/animal; injected into engorged adult female ticks; laying of fertile eggs, after 7 days
Outline: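 Engorged adult female ticks, five per dose, were injected in the abdomen with 1 μl of active ingredient diluted in dimethyl sulphoxide. Animals were kept in dishes under climate control, and egg fertility was assessed after 7 days.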

Compound | efficacy [%]
Cc1ncc(-c2cnn(-c3c(Cl)cc(C(F)(C(F)(F)F)C(F)(F)F)cc3Cl)c2)cc1C(=O)NC1(C#N)CC1 [I-T3-92] | 100
Cc1cc(C(F)(C(F)(F)F)C(F)(F)F)cc(C)c1-n1cc(-c2cnc(C)c(C(=O)NC3CC3)c2)cn1 [I-T3-96] | 100
Cc1cc(C(F)(C(F)(F)F)C(F)(F)F)cc(C)c1-n1cc(-c2cnc(C)c(C(=O)NC3(C#N)CC3)c2)cn1 [I-T3-97] | 100
O=C(NC1CC1)c1cc(-c2cnn(-c3c(Cl)cc(C(F)(F)F)cc3Cl)c2)cnc1Cl [I-T3-98] | 100

System: Ctenocephalides felis
Assay: Ctenocephalides felis - oral test
Format: in vivo
Conditions: application rate 100 ppm in citrated cattle blood; adult fleas; kill after 2 days
Outline: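 Oral exposure of unfed adult fleas, roughly 20 per chamber, to compound-spiked citrated cattle blood taken up across a parafilm membrane. Read-out is percent kill at 2 days, where 100% means every flea dead.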

Compound | efficacy [%]
Cc1ncc(-c2cnn(-c3c(Cl)cc(C(F)(C(F)(F)F)C(F)(F)F)cc3Cl)c2)cc1C(=O)NC1(C#N)CC1 [I-T3-92] | 100
Cc1cc(C(F)(C(F)(F)F)C(F)(F)F)cc(C)c1-n1cc(-c2cnc(C)c(C(=O)NC3CC3)c2)cn1 [I-T3-96] | 100
Cc1cc(C(F)(C(F)(F)F)C(F)(F)F)cc(C)c1-n1cc(-c2cnc(C)c(C(=O)NC3(C#N)CC3)c2)cn1 [I-T3-97] | 100
O=C(NC1CC1)c1cc(-c2cnn(-c3c(Cl)cc(C(F)(F)F)cc3Cl)c2)cnc1Cl [I-T3-98] | 100

System: Amblyomma hebraeum
Assay: Amblyomma hebraeum test (tick nymphs, immersion)
Format: in vivo
Conditions: application rate 100 ppm; tick nymphs immersed for one minute; kill after 42 days
Description: Solvent: dimethyl sulphoxide
To produce an appropriate active ingredient formulation, 10 mg of active ingredient are mixed with 0.5 ml of dimethyl sulphoxide, and the concentrate is diluted with water to the desired concentration.
Tick nymphs (Amblyomma hebraeum) are placed into perforated plastic beakers and immersed in the desired concentration for one minute. The ticks are transferred on filter paper into a Petri dish and stored in a climate-controlled cabinet.
After 42 days, the kill in % is determined. 100% means that all of the ticks have been killed; 0% means that none of the ticks have been killed.

Compound | efficacy [%]
Cc1ncc(-c2cnn(-c3c(Cl)cc(C(F)(C(F)(F)F)C(F)(F)F)cc3Cl)c2)cc1C(=O)NC1(C#N)CC1 [I-T3-92] | 100
Cc1cc(C(F)(C(F)(F)F)C(F)(F)F)cc(C)c1-n1cc(-c2cnc(C)c(C(=O)NC3CC3)c2)cn1 [I-T3-96] | 100
Cc1cc(C(F)(C(F)(F)F)C(F)(F)F)cc(C)c1-n1cc(-c2cnc(C)c(C(=O)NC3(C#N)CC3)c2)cn1 [I-T3-97] | 100
O=C(NC1CC1)c1cc(-c2cnn(-c3c(Cl)cc(C(F)(F)F)cc3Cl)c2)cnc1Cl [I-T3-98] | 100
